In patent US20260285871A1, “Polymorphic Compounds and Uses Thereof” (TYRA BIOSCIENCES, INC., priority 2022, published 2026):

Legend:
Assay type in all cases: physicochemical
[1] = Storage of solid form at RT, form followed by XRPD; conditions: storage at RT for about one month
Procedure: X-Ray Powder Diffraction (XRPD) Data Collection Strategy: XRPD patterns of samples were recorded at room temperature on Aeris X-ray diffractometer (Almelo, The Netherlands) using Cu Kα radiation (λ=1.54 Å) at 40 kV, 15 mA passing through a Ni monochromater. Data were collected in a continuous scan mode with a step size of 0.02° and dwell time of 149 s over an angular range of 3° to 40° 2θ. The sample was loaded on a zero-background holder and gently pressed by a clean glass slide to ensure coplanarity of the sample surface with the surface of the holder. Obtained diffractograms were analysed and plotted with HighScore Plus software (V 5.0; Almelo, The Netherlands).

[2] = Dynamic Vapor Sorption (DVS), moisture sorption/desorption; conditions: data not shown; for hygroscopicity suggested by vapor sorption data: DVS, 5% to 98% RH
Text: Dynamic Vapor Sorption (DVS): Moisture sorption/desorption data were collected on a DVS-intrinsic vapor sorption analyser (Surface Measurement Systems NA, Allentown, PA, USA) and operating with DVS-intrinsic control software (Version 1.0.5.1). Samples were not dried prior to analysis. Sorption and desorption data were collected over a range from 5% to 98% relative humidity (RH) via 10% RH increments under a nitrogen purge. The equilibrium criterion used for analysis was less than 0.005% weight change in 10 min with a maximum equilibration time of 3 h.

[3] = Crystallization (polymorph) studies of compound 2: fast, reactive, slurry at 40° C., anti-solvent; solids analysed by XRPD; conditions: solvent 1,2 Prop Diol
Procedure: Forms I-XIII of compound 2 were prepared according to one of the crystallization methods described below, e.g., fast crystallization; reactive crystallization; slurry crystallization or anti-solvent crystallization.
Fast Crystallization Method: In a typical experiment, compound 2 (ca. 10 mg) was dissolved in minimum quantity the stated solvent while heating to 80° C. The resulted solution was allowed to cool down to room temperature. […]
Reactive Crystallization: Benzene sulfonic acid (BSA) was dissolved in THF to prepare a stock solution and used for all the reactive crystallization experiments. Compound A free base (ca. 30 mg) was dissolved in minimum quantity the stated solvent while heating to 80° C. The resultant compound A free base solutions were allowed to cooldown to RT and added one equivalent of BSA stock solution. It was observed that most of the reactions yielded precipitate. […]
Slurry Crystallization at 40° C. using Form I of compound 2: In a typical experiment, compound 2 (ca. 100 mg) was suspended in minimum quantity the stated solvent while heating to 40° C. The resulted slurries were allowed to stir at 40° C. for three days.
Anti-Solvent Crystallization: In a typical experiment, compound 2 (ca. 100 mg) was dissolved in solubilizing solvent. To that solution 200 μL anti-solvent was added slowly. These iterations were continued until the precipitation observed or maximum solvent quantity of ~15 mL.

Structure (SMILES): C[C@@H](Oc1ccc2[nH]nc(-c3ccc(N4CC5(C4)CN(S(C)(=O)=O)C5)nc3)c2c1)c1c(Cl)cncc1Cl.O=S(=O)(O)c1ccccc1 [Form VIII of compound 2]
- solid form change during storage [1]: transformed to Form I of compound 2

Structure (SMILES): C[C@@H](Oc1ccc2[nH]nc(-c3ccc(N4CC5(C4)CN(S(C)(=O)=O)C5)nc3)c2c1)c1c(Cl)cncc1Cl.O=C(O)C(O)C(O)C(=O)O [Form I of Compound 25]
- hygroscopicity suggested by vapor sorption data [2]: moderately hygroscopic

Structure (SMILES): C[C@@H](Oc1ccc2[nH]nc(-c3ccc(N4CC5(C4)CN(S(C)(=O)=O)C5)nc3)c2c1)c1c(Cl)cncc1Cl.O=C(O)/C=C/C(=O)O (stereo in doubt) [Form II of Compound 3]
- hygroscopicity suggested by vapor sorption data [2]: moderately hygroscopic

Structure (SMILES): C[C@@H](Oc1ccc2[nH]nc(-c3ccc(N4CC5(C4)CN(S(C)(=O)=O)C5)nc3)c2c1)c1c(Cl)cncc1Cl.O=C(O)CC(=O)O [Form I of Compound 26]
- hygroscopicity suggested by vapor sorption data [2]: moderately hygroscopic
- weight loss observed in the DVS data [2]: about 2.1%

Structure (SMILES): Br.C[C@@H](Oc1ccc2[nH]nc(-c3ccc(N4CC5(C4)CN(S(C)(=O)=O)C5)nc3)c2c1)c1c(Cl)cncc1Cl [Form II of Compound 12]
- hygroscopicity suggested by vapor sorption data [2]: moderately hygroscopic

Structure (SMILES): C[C@@H](Oc1ccc2[nH]nc(-c3ccc(N4CC5(C4)CN(S(C)(=O)=O)C5)nc3)c2c1)c1c(Cl)cncc1Cl.O=S(=O)(O)c1ccccc1 [Compound 2]
- Anti-Solvent Crystallization Result ([3]; anti-solvent 4-Me-2-Pentanone): Form-X
- Anti-Solvent Crystallization Result ([3]; anti-solvent DEE): Form-XI
- Anti-Solvent Crystallization Result ([3]; anti-solvent EtOAc): Form-XI
- Anti-Solvent Crystallization Result ([3]; anti-solvent T-butyl-methyl-ether): Form-XI

Structure (SMILES): C[C@@H](Oc1ccc2[nH]nc(-c3ccc(N4CC5(C4)CN(S(C)(=O)=O)C5)nc3)c2c1)c1c(Cl)cncc1Cl [Form I of Compound 24]
- stability suggested by vapor sorption / DVS data [2]: instability
- weight loss observed in the DVS data [2]: about 3.27%

Structure (SMILES): C[C@@H](Oc1ccc2[nH]nc(-c3ccc(N4CC5(C4)CN(S(C)(=O)=O)C5)nc3)c2c1)c1c(Cl)cncc1Cl.Cl [Form II of Compound 1]
- hygroscopicity suggested by vapor sorption data [2]: moderately hygroscopic

Structure (SMILES): C[C@@H](Oc1ccc2[nH]nc(-c3ccc(N4CC5(C4)CN(S(C)(=O)=O)C5)nc3)c2c1)c1c(Cl)cncc1Cl.O=P(O)(O)O [Form I of Compound 23]
- hygroscopicity suggested by vapor sorption data [2]: hygroscopic

Structure (SMILES): C[C@@H](Oc1ccc2[nH]nc(-c3ccc(N4CC5(C4)CN(S(C)(=O)=O)C5)nc3)c2c1)c1c(Cl)cncc1Cl [Form II of Compound 5]
- hygroscopicity suggested by vapor sorption data [2]: moderately hygroscopic
